Assay results from US20180140612A1, “TOPICAL OPHTHALMIC FORMULATIONS FOR THE TREATMENT AND PREVENTION OF MIGRAINE HEADACHE” (Ora, Inc., priority 2013, published 2018).
Where a name gives a salt, the structure may show the parent alone.

Assays:
[1] = cited from earlier work
[2] = migraineurs versus control subjects; cited from earlier work
[3] = instillation of ophthalmic drops in the eye of subjects with migraine; assay type: in vivo, human; settings: two subjects with occasional migraine
Method: Data from two subjects with occasional migraine has shown that one drop of ketotifen 0.025% in the eye was successful in providing relief within 2 hours post treatment
Data from two subjects with occasional migraine has shown that one drop of ketotifen 0.05% in the eye was successful in providing relief within 2 hours post treatment

[4] = first month of treatment; prescription-event data; cited from earlier work
[5] = topical 0.5% ophthalmic solution, twice daily dosing for 8 days, cited from earlier work

**Q.** With CC(C)NCC(O)COc1ccc(CCOCC2CC2)cc1 (centres unmarked) [betaxolol] as the compound, how does the migraine related complaints ([1]; case control study, group of subjects receiving the topical beta-blocker) read?
**A.** Its migraine related complaints is “showed improvement in their migraine related complaints”.

**Q.** Which “induction of migraine headache” value [2] does the source give for NCCc1c[nH]cn1 [histamine] here?
**A.** The value was “induced migraine headache more often in migraineurs than in control subjects”.

**Q.** Which “time to relief post treatment” value ([3]; one drop of ketotifen 0.025% in the eye) does the source give for CN1CCC(=C2c3ccccc3CC(=O)c3sccc32)CC1 [ketotifen] here?
**A.** Its value is no more than 2 h.

**Q.** And the “time to relief post treatment” value ([3]; one drop of ketotifen 0.05% in the eye)?
**A.** Its value is no more than 2 h.

**Q.** With O=C(O)COCCN1CCN([C@H](c2ccccc2)c2ccc(Cl)cc2)CC1 [levocetirizine] as the compound, how does the “association of headache/migraines with treatment” value [4] read?
**A.** Its value is “positively associated”.

**Q.** What does the source list for CC(C)(C)NC[C@H](O)COc1nsnc1N1CCOCC1 [timolol maleate]?
**A.** further attacks of migraine ([1]; case report, person with history of common migraine, topical timolol maleate 0.5% for bilateral ocular hypertension): did not experience any further attacks of migraine; time of peak plasma concentration following first dose [5]: ≤ 4 h; peak plasma concentration ([5]; following first dose): 0.5 ng/mL
